Data taken from patent US11332459B2 (TEIJIN PHARMA LIMITED, priority 2017, dated 2022).
pIC50: −log10 of the molar value.

The molecules below were run against T1, human TRPC6 (Homo sapiens, UniProt Q9Y210) (assay: TRPC6 calcium flux assay (FLIPR, OAG-stimulated calcium influx)). Conditions: HEK293 cells stably transfected with human TRPC6, read-out: hTRPC6 Potency.
T1 construct: expressed in transfected cells
T1 sequence (Q9Y210 1-931): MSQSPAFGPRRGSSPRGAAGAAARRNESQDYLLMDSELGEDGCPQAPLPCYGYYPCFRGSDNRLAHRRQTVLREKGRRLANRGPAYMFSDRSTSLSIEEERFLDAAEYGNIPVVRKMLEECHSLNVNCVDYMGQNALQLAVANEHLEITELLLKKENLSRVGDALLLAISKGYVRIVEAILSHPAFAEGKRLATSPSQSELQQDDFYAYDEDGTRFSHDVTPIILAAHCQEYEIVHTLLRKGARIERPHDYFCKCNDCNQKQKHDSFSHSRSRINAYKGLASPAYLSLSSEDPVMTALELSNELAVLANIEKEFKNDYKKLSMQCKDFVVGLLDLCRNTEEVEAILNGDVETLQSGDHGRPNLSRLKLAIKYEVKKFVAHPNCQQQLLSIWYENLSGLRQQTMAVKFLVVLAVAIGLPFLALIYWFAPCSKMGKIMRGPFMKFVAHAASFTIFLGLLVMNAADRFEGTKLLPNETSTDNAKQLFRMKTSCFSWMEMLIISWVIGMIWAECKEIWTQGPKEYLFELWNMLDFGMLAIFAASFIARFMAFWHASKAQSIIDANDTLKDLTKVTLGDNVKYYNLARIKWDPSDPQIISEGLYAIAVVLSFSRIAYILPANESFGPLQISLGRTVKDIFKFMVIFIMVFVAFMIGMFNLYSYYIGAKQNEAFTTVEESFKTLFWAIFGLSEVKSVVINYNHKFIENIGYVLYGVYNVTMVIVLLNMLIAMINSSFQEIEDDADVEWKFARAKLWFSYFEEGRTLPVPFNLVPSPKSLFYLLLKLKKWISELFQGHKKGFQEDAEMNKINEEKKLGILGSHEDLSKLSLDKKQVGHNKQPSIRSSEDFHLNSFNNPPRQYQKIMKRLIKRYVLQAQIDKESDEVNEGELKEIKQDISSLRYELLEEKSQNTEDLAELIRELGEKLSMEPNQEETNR
Format: cell-based
Procedure, shortened: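 HEK293 cells stably expressing human TRPC6, loaded with calcium dye 90–120 min at RT, then given compound for 25 min before OAG (50 uM final, 0.5% DMSO) in HEPES buffer pH 7.2 with 2 mM CaCl2. Background-subtracted FLIPR peak over 180 s normalized to OAG vs buffer; IC50 from dose plot.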

SMILES	pIC50
CS(=O)(=O)CC1CCN(C(=O)Cn2c(N3CC[C@@H](F)[C@H](N)C3)nc3cc(F)c(F)cc32)C1 (stereo partly drawn) [Example 645, 2-(2-((3R,4R)-3-amino-4-fluoropiperidin-1-yl)-5,6-difluoro-1H-benzo[d]imidazol-1-yl)-1-(3-((methylsulfonyl)methyl)pyrrolidin-1-yl)ethanone]	5.64
N[C@@H]1CN(c2nc3cc(F)c(F)cc3n2CC(=O)N2CCn3ncnc3C2)CC[C@H]1F [Example 646, 2-(2-((3R,4R)-3-amino-4-fluoropiperidin-1-yl)-5,6-difluoro-1H-benzo[d]imidazol-1-yl)-1-(5,6-dihydro-[1,2,4]triazolo[1,5-a]pyrazin-7(8H)-yl)ethanone]	5.64
CC1(O)CCN(C(=O)Cn2c(N3CC[C@@H](F)[C@H](N)C3)nc3cc(F)c(F)cc32)C1 (stereo partly drawn) [Example 648, 2-(2-((3R,4R)-3-amino-4-fluoropiperidin-1-yl)-5,6-difluoro-1H-benzo[d]imidazol-1-yl)-1-(3-hydroxy-3-methylpyrrolidin-1-yl)ethanone]	5.47
CS(=O)(=O)N1CCN(C(=O)Cn2c(N3CC[C@@H](F)[C@H](N)C3)nc3cc(F)c(F)cc32)CC1 [Example 649, 2-(2-((3R,4R)-3-amino-4-fluoropiperidin-1-yl)-5,6-difluoro-1H-benzo[d]imidazol-1-yl)-1-(4-(methylsulfonyl)piperazin-1-yl)ethanone]	< 5.43
CN(C(=O)Cn1c(N2CC[C@@H](F)[C@H](N)C2)nc2cc(F)c(F)cc21)C1CCS(=O)(=O)CC1 [Example 651, 2-(2-((3R,4R)-3-amino-4-fluoropiperidin-1-yl)-5,6-difluoro-1H-benzo[d]imidazol-1-yl)-N-(1,1-dioxidotetrahydro-2H-thiopyran-4-yl)-N-methylacetamide]	< 5.43
CC(C)(C#N)C1CCN(C(=O)Cn2c(N3CC[C@@H](F)[C@H](N)C3)nc3cc(F)c(F)cc32)CC1 [Example 653, 2-(1-(2-(2-((3R,4R)-3-amino-4-fluoropiperidin-1-yl)-5,6-difluoro-1H-benzo[d]imidazol-1-yl)acetyl)piperidin-4-yl)-2-methylpropanenitrile]	< 5.43
CNC(=O)C1CCCN(C(=O)Cn2c(N3CC[C@@H](F)[C@H](N)C3)nc3cc(F)c(F)cc32)C1 (stereo partly drawn) [Example 654, 1-(2-(2-((3R,4R)-3-amino-4-fluoropiperidin-1-yl)-5,6-difluoro-1H-benzo[d]imidazol-1-yl)acetyl)-N-methylpiperidine-3-carboxamide]	< 5.43
N[C@@H]1CN(c2nc3cc(F)c(F)cc3n2CC(=O)N(CCO)Cc2cccnc2)CC[C@H]1F [Example 655, 2-(2-((3R,4R)-3-amino-4-fluoropiperidin-1-yl)-5,6-difluoro-1H-benzo[d]imidazol-1-yl)-N-(2-hydroxyethyl)-N-(pyridin-3-ylmethyl)acetamide]	< 5.43
N#CCCN(C(=O)Cn1c(N2CC[C@@H](F)[C@H](N)C2)nc2cc(F)c(F)cc21)C1CCOCC1 [Example 656]	< 5.43
CN(C)C(=O)C1CCCN(C(=O)Cn2c(N3CC[C@@H](F)[C@H](N)C3)nc3cc(F)c(F)cc32)C1 (stereo partly drawn) [Example 657, 1-(2-(2-((3R,4R)-3-amino-4-fluoropiperidin-1-yl)-5,6-difluoro-1H-benzo[d]imidazol-1-yl)acetyl)-N,N-dimethylpiperidine-3-carboxamide]	< 5.43
COCC1(C#N)CCN(C(=O)Cn2c(N3CC[C@@H](F)[C@H](N)C3)nc3cc(F)c(F)cc32)CC1 [Example 658, 1-(2-(2-((3R,4R)-3-amino-4-fluoropiperidin-1-yl)-5,6-difluoro-1H-benzo[d]imidazol-1-yl)acetyl)-4-(methoxymethyl)piperidine-4-carbonitrile]	< 5.43
N[C@@H]1CN(c2nc3cc(F)c(F)cc3n2CC(=O)N2CCN3C(=O)OCC3C2)CC[C@H]1F (stereo partly drawn) [Example 659, 7-(2-(2-((3R,4R)-3-amino-4-fluoropiperidin-1-yl)-5,6-difluoro-1H-benzo[d]imidazol-1-yl)acetyl)tetrahydro-1H-oxazolo[3,4-a]pyrazin-3(5H)-one]	< 5.43
N[C@@H]1CN(c2nc3ccc(F)cc3n2CC(=O)N(CC(F)(F)F)[C@H]2CCOC2)CC[C@H]1F [Example 667, 2-(2-((3R,4R)-3-amino-4-fluoropiperidin-1-yl)-6-fluoro-1H-benzo[d]imidazol-1-yl)-N-((S)-tetrahydrofuran-3-yl)-N-(2,2,2-trifluoroethyl)acetamide]	6.13
N[C@@H]1CN(c2nc3ccc(F)cc3n2CC(=O)NC2CCC2)CC[C@H]1F [Example 668, 2-(2-((3R,4R)-3-amino-4-fluoropiperidin-1-yl)-6-fluoro-1H-benzo[d]imidazol-1-yl)-N-cyclobutylacetamide]	6.11
C[C@@H](CC#N)NC(=O)Cn1c(N2CC[C@@H](F)[C@H](N)C2)nc2ccc(F)cc21 [Example 669, 2-(2-((3R,4R)-3-amino-4-fluoropiperidin-1-yl)-6-fluoro-1H-benzo[d]imidazol-1-yl)-N-((S)-1-cyanopropan-2-yl)acetamide]	6.05

These reach a higher pIC50. Values come first.

pIC50	SMILES
8.30	N[C@@H]1CN(c2nc3ccc(F)cc3n2CC(=O)Nc2nccs2)CC[C@H]1F [Example 660, 2-(2-((3R,4R)-3-amino-4-fluoropiperidin-1-yl)-6-fluoro-1H-benzo[d]imidazol-1-yl)-N-(thiazol-2-yl)acetamide]
6.55	N[C@@H]1CN(c2nc3ccc(F)cc3n2CC(=O)NCC(F)(F)F)CC[C@H]1F [Example 661, 2-(2-((3R,4R)-3-amino-4-fluoropiperidin-1-yl)-6-fluoro-1H-benzo[d]imidazol-1-yl)-N-(2,2,2-trifluoroethyl)acetamide]
6.55	N[C@@H]1CN(c2nc3ccc(F)cc3n2CC(=O)N(CC(F)(F)F)C2CC2)CC[C@H]1F [Example 662, 2-(2-((3R,4R)-3-amino-4-fluoropiperidin-1-yl)-6-fluoro-1H-benzo[d]imidazol-1-yl)-N-cyclopropyl-N-(2,2,2-trifluoroethyl)acetamide]
6.53	COCCN(C)C(=O)Cn1c(N2CC[C@@H](F)[C@H](N)C2)nc2ccc(F)cc21 [Example 663, 2-(2-((3R,4R)-3-amino-4-fluoropiperidin-1-yl)-6-fluoro-1H-benzo[d]imidazol-1-yl)-N-(2-methoxyethyl)-N-methylacetamide]
6.26	CN(C(=O)Cn1c(N2CC[C@@H](F)[C@H](N)C2)nc2ccc(F)cc21)[C@H]1CCOC1 [Example 664, 2-(2-((3R,4R)-3-amino-4-fluoropiperidin-1-yl)-6-fluoro-1H-benzo[d]imidazol-1-yl)-N-methyl-N-((S)-tetrahydrofuran-3-yl)acetamide]
6.23	CN(C(=O)Cn1c(N2CC[C@@H](F)[C@H](N)C2)nc2ccc(F)cc21)[C@@H]1CCOC1 [Example 665, 2-(2-((3R,4R)-3-amino-4-fluoropiperidin-1-yl)-6-fluoro-1H-benzo[d]imidazol-1-yl)-N-methyl-N-((R)-tetrahydrofuran-3-yl)acetamide]
6.16	C[C@H](NC(=O)Cn1c(N2CC[C@@H](F)[C@H](N)C2)nc2ccc(F)cc21)c1ccccn1 [Example 666, 2-(2-((3R,4R)-3-amino-4-fluoropiperidin-1-yl)-6-fluoro-1H-benzo[d]imidazol-1-yl)-N-((S)-1-(pyridin-2-yl)ethyl)acetamide]
